Columns and labels:
Type in all cases: in vivo
[1] = test system: barnyardgrass (Echinochloa crus-galli); experiment: Test A pre-/postemergence plant response; conditions: for Barnyardgrass plant response rating: visual injury, 0 to 100 scale (0 no effect, 100 complete control), approx. ten days
How it was run: (§1)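 Formulated test chemicals (non-phytotoxic solvent, surfactant) were sprayed onto soil right after planting and simultaneously onto young plants at one to two leaves, 2 to 10 cm tall. Plants stayed in the greenhouse about ten days; injury was then visually scored against untreated controls, from 0 (no effect) to 100 (complete control).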

corn (Zea mays) = experiment: Test A pre-/postemergence plant response; conditions: for Corn plant response rating: visual injury, 0 to 100 scale (0 no effect, 100 complete control), approx. ten days
How it was run: as §1

[2] = test system: giant foxtail (Setaria faberii); experiment: Test A pre-/postemergence plant response; conditions: for Foxtail, Giant plant response rating: visual injury, 0 to 100 scale (0 no effect, 100 complete control), approx. ten days
How it was run: as §1

[3] = test system: large crabgrass (Digitaria sanguinalis); experiment: Test A pre-/postemergence plant response; conditions: for Crabgrass, Large plant response rating: visual injury, 0 to 100 scale (0 no effect, 100 complete control), approx. ten days
How it was run: as §1

[4] = test system: morningglory (Ipomoea spp.); experiment: Test A pre-/postemergence plant response; conditions: for Morningglory plant response rating: visual injury, 0 to 100 scale (0 no effect, 100 complete control), approx. ten days
How it was run: as §1

[5] = test system: pigweed (Amaranthus retroflexus); experiment: Test A pre-/postemergence plant response; conditions: for Pigweed plant response rating: visual injury, 0 to 100 scale (0 no effect, 100 complete control), approx. ten days
How it was run: as §1

[6] = test system: velvetleaf (Abutilon theophrasti); experiment: Test A pre-/postemergence plant response; conditions: for Velvetleaf plant response rating: visual injury, 0 to 100 scale (0 no effect, 100 complete control), approx. ten days
How it was run: as §1

[7] = test system: wheat (Triticum aestivum); experiment: Test A pre-/postemergence plant response; conditions: for Wheat plant response rating: visual injury, 0 to 100 scale (0 no effect, 100 complete control), approx. ten days
How it was run: as §1

[8] = test system: barnyardgrass (Echinochloa crus-galli); experiment: Test B flooded paddy test; conditions: for Plant response rating, Flood, Barnyardgrass: 250 g ai/ha, flooded paddy test, visual rating on 0 to 100 scale (0 no effect, 100 complete control) after 13 to 15 days; for Plant response rating, Barnyardgrass: Flood (flooded paddy test), 13 to 15 days
How it was run: (§2)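 Ratings are visual, 0–100 (100 = complete control), taken versus untreated controls 13 to 15 days after treatment in the greenhouse. Compound went straight into paddy water held 3 cm above soil, applied to 2-leaf-stage plants of four species.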

[9] = test system: ducksalad (Heteranthera limosa); experiment: Test B flooded paddy test; conditions: for Plant response rating, Flood, Ducksalad: 250 g ai/ha, flooded paddy test, visual rating on 0 to 100 scale (0 no effect, 100 complete control) after 13 to 15 days; for Plant response rating, Ducksalad: Flood (flooded paddy test), 13 to 15 days
How it was run: as §2

rice (Oryza sativa) = experiment: Test B flooded paddy test; conditions: for Plant response rating, Flood, Rice: 250 g ai/ha, flooded paddy test, visual rating on 0 to 100 scale (0 no effect, 100 complete control) after 13 to 15 days; for Plant response rating, Rice: Flood (flooded paddy test), 13 to 15 days
How it was run: as §2

[10] = test system: umbrella sedge (Cyperus difformis); experiment: Test B flooded paddy test; conditions: for Plant response rating, Flood, Sedge, Umbrella: 250 g ai/ha, flooded paddy test, visual rating on 0 to 100 scale (0 no effect, 100 complete control) after 13 to 15 days; for Plant response rating, Sedge, Umbrella: Flood (flooded paddy test), 13 to 15 days
How it was run: as §2

[11] = Postemergence, 125 g ai/ha, 0 to 100 scale where 0 is no effect and 100 is complete control
[12] = Preemergence, 125 g ai/ha, 0 to 100 scale, 0 = no effect, 100 = complete control
[13] = Preemergence, 500 g ai/ha, 0 to 100 scale, 0 = no effect, 100 = complete control
[14] = 62 g ai/ha, scale of 0 to 100 where 0 is no effect and 100 is complete control
[15] = 125 g ai/ha, scale 0 to 100, 0 is no effect, 100 is complete control
[16] = Flood, 31 g ai/ha, scale 0 to 100 (0 no effect, 100 complete control)

Structure (SMILES): O=C1CCCC(O)=C1C(=O)c1cnc(-c2cccs2)n(C2CCCCC2)c1=O [Compound 189]
- Plant response rating, Barnyardgrass [1, 11]: 90
- Barnyardgrass plant response rating ([1]; Postemergence, 500 g ai/ha): 90
- Plant response rating, Barnyardgrass [1, 12]: 20
- Plant response rating, Barnyardgrass [1, 13]: 90
- Plant response rating, Corn (corn (Zea mays); [11]): 10
- Corn plant response rating (corn (Zea mays); Postemergence, 500 g ai/ha): 40
- Plant response rating, Corn (corn (Zea mays); [12]): 0
- Plant response rating, Corn (corn (Zea mays); [13]): 0
- Plant response rating, Foxtail, Giant [2, 11]: 80
- Foxtail, Giant plant response rating ([2]; Postemergence, 500 g ai/ha): 90
- Plant response rating, Foxtail, Giant [2, 12]: 30
- Plant response rating, Foxtail, Giant [2, 13]: 60
- Plant response rating, Crabgrass, Large [3, 11]: 90
- Crabgrass, Large plant response rating ([3]; Postemergence, 500 g ai/ha): 90
- Plant response rating, Crabgrass, Large [3, 12]: 30
- Plant response rating, Crabgrass, Large [3, 13]: 80
- Plant response rating, Morningglory [4, 11]: 100
- Morningglory plant response rating ([4]; Postemergence, 500 g ai/ha): 100
- Plant response rating, Morningglory [4, 13]: 80
- Plant response rating, Pigweed [5, 11]: 100
- Pigweed plant response rating ([5]; Postemergence, 500 g ai/ha): 100
- Plant response rating, Pigweed [5, 12]: 70
- Plant response rating, Pigweed [5, 13]: 100
- Plant response rating, Velvetleaf [6, 11]: 100
- Velvetleaf plant response rating ([6]; Postemergence, 500 g ai/ha): 100
- Plant response rating, Velvetleaf [6, 12]: 70
- Plant response rating, Velvetleaf [6, 13]: 100
- Plant response rating, Wheat [7, 11]: 0
- Wheat plant response rating ([7]; Postemergence, 500 g ai/ha): 0
- Plant response rating, Wheat [7, 12]: 0
- Plant response rating, Wheat [7, 13]: 0
- Plant response rating, Flood, Barnyardgrass [8]: 70
- Plant response rating, Barnyardgrass [8, 14]: 30
- Plant response rating, Flood, Ducksalad [9]: 100
- Plant response rating, Ducksalad [9, 14]: 100
- Plant response rating, Flood, Rice (rice (Oryza sativa)): 60
- Plant response rating, Rice (rice (Oryza sativa); [14]): 20
- Plant response rating, Flood, Sedge, Umbrella [10]: 100
- Plant response rating, Sedge, Umbrella [10, 14]: 95

Structure (SMILES): O=C(C1=C(O)C2CCC(C2)C1=O)c1cnc(-c2ccsc2)n(CC2CCCO2)c1=O (stereo not drawn) [Compound 229]
- Plant response rating, Barnyardgrass [1, 11]: 90
- Barnyardgrass plant response rating ([1]; Postemergence, 500 g ai/ha): 100
- Plant response rating, Barnyardgrass [1, 12]: 0
- Plant response rating, Barnyardgrass [1, 13]: 70
- Plant response rating, Corn (corn (Zea mays); [11]): 0
- Corn plant response rating (corn (Zea mays); Postemergence, 500 g ai/ha): 40
- Plant response rating, Corn (corn (Zea mays); [12]): 0
- Plant response rating, Corn (corn (Zea mays); [13]): 0
- Plant response rating, Foxtail, Giant [2, 11]: 90
- Foxtail, Giant plant response rating ([2]; Postemergence, 500 g ai/ha): 100
- Plant response rating, Foxtail, Giant [2, 12]: 50
- Plant response rating, Foxtail, Giant [2, 13]: 60
- Plant response rating, Crabgrass, Large [3, 11]: 80
- Crabgrass, Large plant response rating ([3]; Postemergence, 500 g ai/ha): 100
- Plant response rating, Crabgrass, Large [3, 12]: 80
- Plant response rating, Crabgrass, Large [3, 13]: 100
- Plant response rating, Morningglory [4, 11]: 100
- Morningglory plant response rating ([4]; Postemergence, 500 g ai/ha): 100
- Plant response rating, Morningglory [4, 12]: 40
- Plant response rating, Morningglory [4, 13]: 80
- Plant response rating, Pigweed [5, 11]: 100
- Pigweed plant response rating ([5]; Postemergence, 500 g ai/ha): 100
- Plant response rating, Pigweed [5, 12]: 90
- Plant response rating, Pigweed [5, 13]: 100
- Plant response rating, Velvetleaf [6, 11]: 100
- Velvetleaf plant response rating ([6]; Postemergence, 500 g ai/ha): 100
- Plant response rating, Velvetleaf [6, 12]: 100
- Plant response rating, Velvetleaf [6, 13]: 100
- Plant response rating, Wheat [7, 11]: 0
- Wheat plant response rating ([7]; Postemergence, 500 g ai/ha): 20
- Plant response rating, Wheat [7, 12]: 0
- Plant response rating, Wheat [7, 13]: 0
- Plant response rating, Flood, Barnyardgrass [8]: 30
- Plant response rating, Barnyardgrass [8, 14]: 0
- Plant response rating, Barnyardgrass [8, 15]: 0
- Barnyardgrass plant response rating [8, 16]: 0
- Plant response rating, Flood, Ducksalad [9]: 40
- Plant response rating, Ducksalad [9, 14]: 0
- Plant response rating, Ducksalad [9, 15]: 0
- Ducksalad plant response rating [9, 16]: 0
- Plant response rating, Flood, Rice (rice (Oryza sativa)): 20
- Plant response rating, Rice (rice (Oryza sativa); [14]): 0
- Plant response rating, Rice (rice (Oryza sativa); [15]): 0
- Rice plant response rating (rice (Oryza sativa); [16]): 0
- Plant response rating, Flood, Sedge, Umbrella [10]: 70
- Plant response rating, Sedge, Umbrella [10, 14]: 0
- Plant response rating, Sedge, Umbrella [10, 15]: 50
- Sedge, Umbrella plant response rating [10, 16]: 0

Reference: US8952024B2, “Herbicidal pyrimidone derivatives” (E I du Pont de Nemours and Company, priority 2009, dated 2015)
